Results reported in patent US20170081338A1, “SUBSTITUTED HETEROARYL COMPOUNDS AND METHODS OF USE” (Sunshine Lake Pharma Co., Ltd., priority 2015, published 2017).

Columns and labels:
Aurora-A (h) = target: T1, Aurora-A (h) (Homo sapiens, UniProt O14965); assay: Aurora-A (h) kinase assay; assay type: biochemical
T1 construct: purchased Millipore UK Ltd (contract assay service)
T1 sequence (O14965 1-403): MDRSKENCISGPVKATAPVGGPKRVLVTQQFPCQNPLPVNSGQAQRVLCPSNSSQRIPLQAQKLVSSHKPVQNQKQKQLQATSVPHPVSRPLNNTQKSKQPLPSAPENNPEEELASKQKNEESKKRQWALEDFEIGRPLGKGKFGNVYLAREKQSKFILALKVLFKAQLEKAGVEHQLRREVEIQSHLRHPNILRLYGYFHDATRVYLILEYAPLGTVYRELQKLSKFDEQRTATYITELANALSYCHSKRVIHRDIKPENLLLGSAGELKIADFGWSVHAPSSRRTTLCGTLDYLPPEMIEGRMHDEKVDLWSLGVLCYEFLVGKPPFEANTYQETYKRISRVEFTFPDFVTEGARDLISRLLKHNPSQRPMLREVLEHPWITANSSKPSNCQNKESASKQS
Method: (§1) The above assay procedure can be used to determine the IC50 for inhibition and/or the inhibition constant, Ki. The IC50 is defined as the concentration of compound required to reduce the enzyme activity by 50% under the condition of the assay. The IC50 value is estimated by preparing a 10 point curve using a 1/2 log dilution series (for example, a typical curve may be prepared using the following compound concentrations: 3 μM, 1 μM, 0.3 μM, 0.1 μM, 0.03 μM, 0.01 μM, 0.003 μM, 0.001 μM, 0.0003 μM and 0 μM).
(§2) Aurora-A (h) is incubated with 8 mM MOPS pH 7.0, 0.2 mM EDTA, 200 μM LRRASLG (Kemptide), 10 mM MgAcetate and [γ-^33P-ATP] (specific activity approx. 500 cpm/pmol, concentration as required). The reaction is initiated by the addition of the MgATP mix. After incubation for 40 minutes at room temperature, the reaction is stopped by the addition of 3% phosphoric acid solution. 10 μL of the reaction is then spotted onto a P30 filtermat and washed three times for 5 minutes in 75 mM phosphoric acid and once in methanol prior to drying and scintillation counting.
(§3) The kinase assays described herein were performed at Millipore UK Ltd, Dundee Technology Park, Dundee DD2 1SW, UK.

[1] = Pharmacokinetics after intravenous and oral administration in rats; assay type: in vivo; settings: for Clearance (CL) after iv dosing / AUC(0-t) / half-life / Vd: dose 1 mg/kg, iv dosing; for F: oral bioavailability; for AUC(0-t) / half-life / Vd: rat, plasma; for Vd: read-out: Vss
Procedure, shortened: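 Compounds dosed IV at 0.5, 1 or 2 mg/kg and orally at 0.5, 1, 5 or 10 mg/kg in rats, as solution, suspension or capsule formulations. Serial blood sampled out to 24 h and plasma stored frozen. Plasma levels quantified by LC/MS/MS in ESI MRM mode.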

Aurora-B (h) = target: T2, Aurora-B (h) (Homo sapiens, UniProt Q96GD4); assay: Aurora-B (h) kinase assay; assay type: biochemical
T2 construct: purchased Millipore UK Ltd (contract assay service)
Method: (§4) Kinase assays can be performed by measurement of incorporation of γ-^33P ATP into immobilized myelin basic protein (MBP). High binding white 384 well plates (Greiner) are coated with MBP (Sigma #M-1891) by incubation of 60 μL/well of 20 μg/mL MBP in Tris-buffered saline (TBS; 50 mM Tris pH 8.0, 138 mM NaCl, 2.7 mM KCl) for 24 h at 4° C. Plates are washed 3× with 100 μL TBS. Kinase reactions are carried out in a total volume of 34 μL in kinase buffer (according to the need to make, for example, 5 mM Hepes pH 7.6, 15 mM NaCl, 0.01% bovine gamma globulin (Sigma #1-5506), 10 mM MgCl2, 1 mM DTT, 0.02% TritonX-100). Compound dilutions are performed in DMSO and added to assay wells to a final DMSO concentration of 1%. Each data point is measured in duplicate, and at least two duplicate assays are performed for each individual compound determination. Enzyme is added to final concentrations of 10 nM or 20 nM, for example. A mixture of unlabeled ATP and γ-^33P ATP is added to start the reaction (2×10^6 cpm of γ-^33P ATP per well (3000 Ci/mmole) and 10 μM unlabeled ATP, typically. The reactions are carried out for 1 h at room temperature with shaking. Plates are washed 7× with TBS, followed by the addition of 50 µL/well scintillation fluid (Wallac). Plates are read using a Wallac Trilux counter. This is only one format of such assays; various other formats are possible, as known to one skilled in the art.
as §1
Aurora-B (h) is incubated with 8 mM MOPS pH 7.0, 0.2 mM EDTA, 30 μM AKRRRLSSLRA, 10 mM MgAcetate and [γ-^33PATP] (specific activity approx. 500 cpm/pmol, concentration as required). The reaction is initiated by the addition of the MgATP mix. After incubation for 40 minutes at room temperature, the reaction is stopped by the addition of a 3% phosphoric acid solution. 10 μL of the reaction is then spotted onto a P30 filtermat and washed three times for 5 minutes in 75 mM phosphoric acid and once in methanol prior to drying and scintillation counting.
as §3

JAK1 (h) = target: T3, JAK1 (h) (Homo sapiens, UniProt P23458); assay: JAK1 (h) kinase assay; assay type: biochemical
T3 construct: purchased Millipore UK Ltd (contract assay service)
Method: as §4, §1
as §2, with “JAK1” for “Aurora-A”, “20” for “8”, “Tris/HCl” for “MOPS”, “7.5,” for “7.0,”, “500” for “200”, “GEEPLYWSFPAKKK,” for “LRRASLG (Kemptide),”
as §3

T2 sequence (Q96GD4 whole entry): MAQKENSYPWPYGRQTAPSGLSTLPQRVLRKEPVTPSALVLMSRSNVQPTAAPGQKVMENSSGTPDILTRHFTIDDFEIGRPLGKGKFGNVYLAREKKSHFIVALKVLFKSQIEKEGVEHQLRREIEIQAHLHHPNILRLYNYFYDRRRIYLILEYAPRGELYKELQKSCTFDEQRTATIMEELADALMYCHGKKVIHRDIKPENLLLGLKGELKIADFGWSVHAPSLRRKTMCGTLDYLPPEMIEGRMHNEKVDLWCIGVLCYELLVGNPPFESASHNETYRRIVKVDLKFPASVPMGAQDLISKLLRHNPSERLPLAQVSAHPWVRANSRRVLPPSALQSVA
T3 sequence (P23458 whole entry): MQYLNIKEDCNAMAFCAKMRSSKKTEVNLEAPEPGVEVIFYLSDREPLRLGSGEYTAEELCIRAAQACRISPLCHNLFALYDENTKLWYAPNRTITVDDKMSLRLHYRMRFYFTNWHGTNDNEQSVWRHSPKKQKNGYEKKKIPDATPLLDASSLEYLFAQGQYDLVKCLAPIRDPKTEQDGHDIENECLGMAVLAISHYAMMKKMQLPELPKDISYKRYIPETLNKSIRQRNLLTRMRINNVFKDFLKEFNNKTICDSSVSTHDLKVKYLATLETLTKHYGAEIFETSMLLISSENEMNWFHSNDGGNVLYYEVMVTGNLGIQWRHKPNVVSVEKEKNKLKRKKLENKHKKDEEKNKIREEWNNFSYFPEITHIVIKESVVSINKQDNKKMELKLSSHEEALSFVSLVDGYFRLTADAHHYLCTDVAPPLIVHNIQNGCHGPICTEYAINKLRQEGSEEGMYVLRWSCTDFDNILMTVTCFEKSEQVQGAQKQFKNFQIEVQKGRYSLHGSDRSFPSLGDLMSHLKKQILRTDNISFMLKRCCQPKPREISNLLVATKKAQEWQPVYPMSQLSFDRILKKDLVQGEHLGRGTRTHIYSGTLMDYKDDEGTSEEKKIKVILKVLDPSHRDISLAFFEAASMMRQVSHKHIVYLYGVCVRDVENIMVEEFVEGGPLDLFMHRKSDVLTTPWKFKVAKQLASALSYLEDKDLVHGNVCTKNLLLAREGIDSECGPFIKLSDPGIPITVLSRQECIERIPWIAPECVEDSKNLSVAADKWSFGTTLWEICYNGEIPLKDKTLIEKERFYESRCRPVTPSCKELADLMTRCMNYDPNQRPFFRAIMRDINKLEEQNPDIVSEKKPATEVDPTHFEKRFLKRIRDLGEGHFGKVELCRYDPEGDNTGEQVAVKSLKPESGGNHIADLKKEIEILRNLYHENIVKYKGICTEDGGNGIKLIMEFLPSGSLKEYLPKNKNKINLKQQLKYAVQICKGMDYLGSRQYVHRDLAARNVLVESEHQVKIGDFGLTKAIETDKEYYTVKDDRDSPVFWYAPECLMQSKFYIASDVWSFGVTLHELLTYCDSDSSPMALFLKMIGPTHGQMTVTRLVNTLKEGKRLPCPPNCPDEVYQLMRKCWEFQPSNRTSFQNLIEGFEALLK

| Structure (SMILES) | IC50 (Aurora-A (h)) [nM] | Clearance (CL) after iv dosing [1] [mL/min/kg] | F [1] [%] | AUC(0-t) [1] [ng·h/mL] | half-life [1] [min] | Vd [1] [L/kg] | IC50 (Aurora-B (h)) [nM] | IC50 (JAK1 (h)) [nM] |
| --- | --- | --- | --- | --- | --- | --- | --- | --- |
| Cn1cc(Nc2ncc(Cl)c(N[C@@H]3COC4C3OC[C@@H]4NS(=O)(=O)CC3CCCC3)n2)cn1 (stereo partly drawn) [Ex. 21, N-((3S,6R)-6-((5-chloro-2-((1-methyl-1H-pyrazol-4-yl)amino)pyrimidin-4-yl)amino)hexahydrofuro[3,2-b]furan-3-yl)-1-cyclopentylmethanesulfonamide] | 2 | 24.8 | 63.7 | 680 | 18 | 0.69 | 6 | 24 |
| Cn1cc(Nc2ncc(Cl)c(N[C@@H]3COC4C3OC[C@@H]4NS(=O)(=O)CC3CCC3)n2)cn1 (stereo partly drawn) [Ex. 31, N-((3S,6R)-6-((5-chloro-2-((1-methyl-1H-pyrazol-4-yl)amino)pyrimidin-4-yl)amino)hexahydrofuro[3,2-b]furan-3-yl)-1-cyclobutylmethanesulfonamide] | 12 | 18.8 | 88.1 | 947 | 37.2 | 0.71 | 18 | – |
| Cn1cc(Nc2ncc(Cl)c(N[C@@H]3COC4C3OC[C@@H]4NS(=O)(=O)CC3CCCO3)n2)cn1 (stereo partly drawn) [Ex. 34, N-((3S,6R)-6-((5-chloro-2-((1-methyl-1H-pyrazol-4-yl)amino)pyrimidin-4-yl)amino)hexahydrofuro[3,2-b]furan-3-yl)-1-(tetrahydrofuran-2-yl)methanesulfonamide] | 24 | – | 28.9 | 1540 | 37.8 | 1.23 | 21 | – |

Further compounds by falling IC50 (Aurora-A (h)), results first:

| IC50 (Aurora-A (h)) [nM] | Clearance (CL) after iv dosing [1] [mL/min/kg] | F [1] [%] | AUC(0-t) [1] [ng·h/mL] | half-life [1] [min] | Vd [1] [L/kg] | IC50 (Aurora-B (h)) [nM] | IC50 (JAK1 (h)) [nM] | Structure (SMILES) |
| --- | --- | --- | --- | --- | --- | --- | --- | --- |
| 18 | 23.2 | 53.6 | 725 | 17.4 | 0.57 | 25 | – | CCC(C)CS(=O)(=O)N[C@H]1COC2C1OC[C@H]2Nc1nc(Nc2cnn(C)c2)ncc1Cl (stereo partly drawn) [Ex. 33, N-((3S,6R)-6-((5-chloro-2-((1-methyl-1H-pyrazol-4-yl)amino)pyrimidin-4-yl)amino)hexahydrofuro[3,2-b]furan-3-yl)-2-methylbutane-1-sulfonamide] |
| 17 | 24.2 | 67.4 | 696 | 37.8 | 0.82 | 8 | – | Cn1cc(Nc2ncc(Cl)c(N[C@@H]3COC4C3OC[C@@H]4NS(=O)(=O)CC(C)(C)C)n2)cn1 (stereo partly drawn) [Ex. 30, N-((3S,6R)-6-((5-chloro-2-((1-methyl-1H-pyrazol-4-yl)amino)pyrimidin-4-yl)amino)hexahydrofuro[3,2-b]furan-3-yl)-2,2-dimethylpropane-1-sulfonamide] |
